Article PMC3265452 (PLoS Neglected Tropical Diseases, 2012)
Structures can show the parent of a compound that is named as a salt.

target: AaDOP2 (Aedes aegypti, UniProt H6D5H2); assay: AaDOP2 antagonist screen of the LOPAC1280 library (HEK-CRELuc-Aadop2 cells, luminescence); assay type: cell-based; conditions: not given
Sequence (H6D5H2 1-476): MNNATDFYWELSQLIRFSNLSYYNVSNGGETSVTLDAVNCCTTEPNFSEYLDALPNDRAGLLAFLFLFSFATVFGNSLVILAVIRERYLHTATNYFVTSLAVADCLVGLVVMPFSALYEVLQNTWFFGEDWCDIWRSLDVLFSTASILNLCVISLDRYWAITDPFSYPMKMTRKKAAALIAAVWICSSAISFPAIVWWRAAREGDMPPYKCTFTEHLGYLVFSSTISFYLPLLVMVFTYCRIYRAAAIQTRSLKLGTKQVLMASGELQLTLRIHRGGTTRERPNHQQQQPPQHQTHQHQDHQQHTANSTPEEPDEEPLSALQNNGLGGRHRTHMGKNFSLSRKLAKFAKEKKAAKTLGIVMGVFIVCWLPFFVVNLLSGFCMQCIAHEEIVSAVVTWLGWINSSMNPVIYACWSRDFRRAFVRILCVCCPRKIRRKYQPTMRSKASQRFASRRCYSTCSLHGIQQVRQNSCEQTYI

Compared with `C[N+](C)(C)CCOC(=O)CBr.[Br-]` [Compound 204, Bromoacetylcholine bromide], `CC1OCC(C[N+](C)(C)C)O1.[I-]` (single isomer, unassigned; (+)) [Compound 325, (+)-cis-Dioxolane iodide] is higher in “Compound effect (percent receptor signaling in presence of test compound, relative lux units relative to the SCH23390 control)” value: 91 for the first, 96 for the second.

First: CCCCCC(O)c1cccc(OCc2ccc3ccccc3n2)c1 (stereo not drawn) [Compound 1049, REV 5901]
Second: C=CCN1CC[C@]23CCCC[C@H]2[C@H]1Cc1ccc(O)cc13 [Compound 726, Levallorphan tartrate]
The “Compound effect (percent receptor signaling in presence of test compound, relative lux units relative to the SCH23390 control)” value of the first is higher: 103 for the first, 93 for the second.

First: NCCCCN=C(N)N [Compound 78, Agmatine sulfate]
Second: Nc1nccc2c1ncn2[C@@H]1O[C@H](CO)[C@@H](O)[C@H]1O [Compound 419, 3-deazaadenosine]
The “Compound effect (percent receptor signaling in presence of test compound, relative lux units relative to the SCH23390 control)” value of the first is higher: 113 for the first, 59 for the second.

First: CCn1cc(C(=O)[O-])c(=O)c2ccc(C)nc21.[Na+] [Compound 852, Nalidixic acid sodium]
Second: CCC(C)N(C)C(=O)c1cc2ccccc2c(-c2ccccc2Cl)n1 (stereo not drawn) [Compound 220, PK 11195]
The “Compound effect (percent receptor signaling in presence of test compound, relative lux units relative to the SCH23390 control)” value of the first is higher: 99 for the first, 84 for the second.

First: CSc1ccc(C(=O)c2[nH]c(=O)[nH]c2C)cc1 [Compound 473, Enoximone]
Second: Br.C[N+](C)(C)CCCCCNCC12CC3CC(CC(C3)C1)C2.[Br-] [Compound 627, IEM-1460]
The “Compound effect (percent receptor signaling in presence of test compound, relative lux units relative to the SCH23390 control)” value of the first is higher: 103 for the first, 97 for the second.

Compared with `CCn1ccnc1CC1COc2ccccc2O1` (stereo not drawn) [Compound 663, Imiloxan hydrochloride], `Cl.O=C(OC1CCN(CCCl)CC1)C(c1ccccc1)c1ccccc1` [Compound 461, 4-Diphenylacetoxy-N-(2-chloroethyl)piperidine hydrochloride] is higher in “Compound effect (percent receptor signaling in presence of test compound, relative lux units relative to the SCH23390 control)” value: 96 for the first, 99 for the second.

Going from `CCCCC1C(=O)N(c2ccccc2)N(c2ccccc2)C1=O` [Compound 980, Phenylbutazone] to `COc1cc(-c2ccc(=O)[nH]n2)ccc1OC(F)F` [Compound 1278, Zardaverine], the “Compound effect (percent receptor signaling in presence of test compound, relative lux units relative to the SCH23390 control)” value rises from 96 to 125.

Going from `NC/C=C\C(=O)O` [Compound 139, cis-4-Aminocrotonic acid] to `O=C1CCC(c2ccc(-n3ccnc3)cc2)=NN1` [Compound 632, Imazodan], the “Compound effect (percent receptor signaling in presence of test compound, relative lux units relative to the SCH23390 control)” value falls from 95 to 92.

Compared with `CC(=O)NCCc1c[nH]c2ccccc12` [Compound 83, N-Acetyltryptamine], `Cc1cc(C)c(NC(=O)C[C@H](CC(=O)O)c2cccc3ccccc23)c(C(=O)N2CCC3(CCCC3)CC2)c1` [Compound 664, CR 2945] is higher in “Compound effect (percent receptor signaling in presence of test compound, relative lux units relative to the SCH23390 control)” value: 42 for the first, 101 for the second.

Compared with `COc1cc(C[C@@H](C)N)c(OC)cc1I.Cl` [Compound 464, ( R)-(-)-DOI hydrochloride], `CC(C)[C@H]1CN[C@H](C(=O)O)[C@H]1CC(=O)O` [Compound 358, Dihydrokainic acid] is higher in “Compound effect (percent receptor signaling in presence of test compound, relative lux units relative to the SCH23390 control)” value: 69 for the first, 94 for the second.

Going from `COc1ccccc1NC(=O)Nc1nc(-c2cccnc2)nc2ccccc12` [Compound 1253, VUF 5574] to `NC(CO)C(=O)NNCc1ccc(O)c(O)c1O` (stereo not drawn) [Compound 184, Benserazide hydrochloride], the “Compound effect (percent receptor signaling in presence of test compound, relative lux units relative to the SCH23390 control)” value falls from 111 to 94.

First: C[C@H]1C[C@H]2[C@@H]3CCC4=CC(=O)C=C[C@]4(C)[C@@]3(F)[C@@H](O)C[C@]2(C)[C@@]1(O)C(=O)CO [Compound 182, Betamethasone]
Second: COc1cc2ncnc(Nc3cccc(Cl)c3)c2cc1OC [Compound 1169, Tyrphostin AG 1478]
The “Compound effect (percent receptor signaling in presence of test compound, relative lux units relative to the SCH23390 control)” value of the first is higher: 89 for the first, 88 for the second.

Compared with `Cl.NC1CCN(c2cccc(Cl)n2)CC1` [Compound 1083, SR 57227A], “2-Methylthioadenosine diphosphate trisodium [Compound 826]” is lower in “Compound effect (percent receptor signaling in presence of test compound, relative lux units relative to the SCH23390 control)” value: 100 for the first, 92 for the second.

First: O=c1[nH]c(=O)n([C@H]2C[C@H](O)[C@@H](CO)O2)cc1Br [Compound 174, 5-Bromo-2'-deoxyuridine]
Second: Adenosine 3',5'-cyclic monophosphate [Compound 105]
The “Compound effect (percent receptor signaling in presence of test compound, relative lux units relative to the SCH23390 control)” value of the first is lower: 84 for the first, 100 for the second.

Compared with `C=CC[N+](C)(C)c1ccc(CCC(=O)CCc2ccc([N+](C)(C)CC=C)cc2)cc1.[Br-].[Br-]` [Compound 100, BW 284c51], `CC(C)COC(=O)OCN1C(=O)CN(CCN2CC(=O)N(COC(=O)OCC(C)C)C(=O)C2)CC1=O` [Compound 1070, Sobuzoxane] is higher in “Compound effect (percent receptor signaling in presence of test compound, relative lux units relative to the SCH23390 control)” value: 93 for the first, 96 for the second.

Compared with `CC[N+](CC)(CC)CCOc1cccc(OCC[N+](CC)(CC)CC)c1OCC[N+](CC)(CC)CC` [Compound 559, Gallamine triethiodide], `OC1(c2ccc(Cl)cc2)CCN(Cc2c[nH]c3ccccc23)CC1` [Compound 731, L-741,626] is lower in “Compound effect (percent receptor signaling in presence of test compound, relative lux units relative to the SCH23390 control)” value: 120 for the first, 104 for the second.

First: c1ccc2c(c1)OCC(C1=NCCN1)O2 (stereo not drawn) [Compound 650, Idazoxan hydrochloride]
Second: O=C(O)C=Cc1c[nH]cn1 [Compound 1238, 4-Imidazoleacrylic acid]
The “Compound effect (percent receptor signaling in presence of test compound, relative lux units relative to the SCH23390 control)” value of the first is higher: 103 for the first, 74 for the second.

same assay, conditions: 10 µM compound, 300 nM dopamine, 2 hr; hit = compound effect <20

Going from `COc1ccccc1N1CCN(CCN(C(=O)c2ccc(I)cc2)c2ccccn2)CC1.Cl` [Compound 832, p-MPPI hydrochloride] to `COc1cc2c(cc1OC)[C@@H](c1ccccc1)CN(C)CC2.O=C(O)/C=C\C(=O)O` [Compound 1138, R(-)-SCH-12679 maleate], the “Compound effect (percent receptor signaling in presence of test compound, relative lux units relative to the SCH23390 control)” value falls from 73% to 36%.

Compared with `CC(C)(C)NCC(O)COc1cccc2[nH]c(=O)[nH]c12.Cl` (racemic) [Compound 334, (±)-CGP-12177A hydrochloride], `O=Nc1ccc2oc(=O)ccc2c1` [Compound 871, 6-Nitroso-1,2-benzopyrone] is lower in “Compound effect (percent receptor signaling in presence of test compound, relative lux units relative to the SCH23390 control)” value: 97% for the first, 93% for the second.

For `CCN(CC)C(=S)SSC(=S)N(CC)CC` [Compound 1149, Tetraethylthiuram disulfide], the “Compound effect (percent receptor signaling in presence of test compound, relative lux units relative to the SCH23390 control)” value was 89%.
